One assay deals with endothelial cells. Description: LIVE/DEAD calcein/ethidium bromide assay, endothelial cell kill rate. Type of assay: cell-based, human. The following applies: for Endothelial, averaged ethidium numbers: kill rate (ethidium), same plate as adipocytes; for Endothelial, relative kill rate rated against the adipocyte kill rate: percentage in brackets. The procedure:
(§1) The time and concentration dependent effects of drug substance on both cell viability and toxicity were evaluated using a two-color fluorescence assay that measures plasma membrane integrity and intracellular enzyme activity. Live cells are determined by the strong fluorescence of calcein AM upon enzymatic conversion. […] The ratio of ethidium to calcein fluorescence is an excellent measure of the relative amount of live and dead cells.
(§2) Initial screening was performed using a variety of cell viability and cytotoxicity assays, including Presto Blue® (Invitrogen, Grand Island, N.Y.), Alamar Blue® (Invitrogen, Grand Island, N.Y.), Cyto-Tox One® (Promega, Madison, Wis.), and Cell Titer Glo® (Promega, Madison, Wis.). […] An MTT terazolium assay was performed, as well as LDH and ATP based assays. […] The LIVE/DEAD® for mammalian cells assay was used. LIVE/DEAD® for mammalian cells assay is a calcein (live read)/ethidium bromide (dead) multiplex assay.
(§3) A sample of DMSO/PBS was a negative control. A sample of Aqualyx® was a positive control. In the table, 24M is phosphatidylcholine 25 mg/ml plus deoxycholate 12 mg/and 25N is C 50/DC24; these were positive controls. The numbers in the table refer to averaged ethidium numbers. The percentages represent the relative kill rate for each cell type when rated against the adipocyte kill rate for that compound. All tissue types were tested on the same plate against adipocytes in order to standardize results.
(§4) Over seventy compounds of the embodiments were tested for adipocytolysis, then for tissue preference. A consistent assay with multiplex information was a calcein/ethidium bromide assay that assesses cell viability and cell death simultaneously. Cell viability was checked using the Countess device. All plates were inoculated with 100 microliters of the appropriate cell types. A 6 well repeat was used to verify results. Cell types used included cultured human adult derived adipocytes, dermal fibroblasts, skeletal muscle cells, and endothelial cells (Cell Applications, Inc., San Diego, Calif.). Human peripheral nerve cells (Innoprot, Spain) were also used.
(§5) Compounds were formulated using a DMSO/PBS excipient. A 10 mg/ml concentration was used. One hundred microliters of test compound was inserted into 6 wells of 5 cell types, placed in adjacent rows. The plates were incubated for 4 hours. Indicator was added to each well, and plates were read at 45 minutes using a fluorescence spectrophotometer (Molecular Devices, Sunnyvale, Calif.).

The subject of assay [1] is adipocytes. Description: LIVE/DEAD calcein/ethidium bromide assay, adipocyte kill rate. The following applies: for adipocyte kill rate / aggressiveness: Example 2, FIGS. 5-8 and table; for Adipocyte, averaged ethidium numbers: kill rate (ethidium), all tissue types on the same plate. The format is cell-based, human. The procedure:
as §1, §2, §3, §4, §5

The test system of a further assay is dermal fibroblasts. The format is cell-based. The following applies: for Dermis, averaged ethidium numbers: kill rate (ethidium), same plate as adipocytes; for Dermis, relative kill rate rated against the adipocyte kill rate: percentage in brackets. Here is the method: as §1, §2, §3, §4, §5
A further assay deals with nerve cells. Type of assay: cell-based. The following applies: for Nerve, averaged ethidium numbers: kill rate (ethidium), same plate as adipocytes; for Nerve, relative kill rate rated against the adipocyte kill rate: percentage in brackets. The procedure: as §1, §2, §3, §4, §5
In the next assay the test system is skeletal muscle cells. Description: LIVE/DEAD calcein/ethidium bromide assay, muscle cell kill rate. Type of assay: cell-based, human. The following applies: for Muscle, averaged ethidium numbers: kill rate (ethidium), same plate as adipocytes; for Muscle, relative kill rate rated against the adipocyte kill rate: percentage in brackets. The procedure:
as §1, §2, §3, §4, §5

Assay [2] has as its system adipocytes over nerve cells, dermal cells, muscle cells, and endothelial cells. Description: LIVE/DEAD assay, tissue preference (adipocytes versus other cell types). The format is cell-based, human. The following applies: for tissue specificity / tissue preference: Example 2, FIGS. 5-8 and table, 2 and 5 hours in FIGS. 6-8.
In assay [3] the test system is adipocytes. Briefly: Histology of injected immediate ex-vivo abdominoplasty tissue. The format is cell-based, human. The procedure: As the indole group has not been previously used for intralesional fat reduction, a method of obtaining histologic specimens had to be modified.
The tissue model described herein, therefore, was immediate ex-vivo abdominoplasty tissue that had been permitted for use by the surgical patient. Segments of abdominal skin and subcutaneous fat were injected with identified test compounds, plus a negative saline control and three positive controls: 1% deoxycholate, the commercial preparation of Aqualyx®, and the Network Lipolysis PC/DC formula.
Because there was no host; inflammatory changes would not be expected. This study was only performed to assess the immediacy of adipocyte changes, and to determine the method of action of each compound.

“Also recorded” adds a separate entry of the source.

`O=Cc1cc2ccccc2[nH]1` [Compound 2, 1H-indole-2-carbaldehyde]: in the assay with endothelial cells, the “Endothelial, averaged ethidium numbers” value is 116 and the “Endothelial, relative kill rate rated against the adipocyte kill rate” value (from here on “Endothelial, relative kill rate rated”) was 32%. Besides, in the assay with adipocytes [1], the “adipocyte kill rate / aggressiveness” value is “aggressive; also recorded: most aggressive” and the “Adipocyte, averaged ethidium numbers” value is 360. Moreover, in the assay on dermal fibroblasts, the “Dermis, averaged ethidium numbers” value amounted to 101 and the “Dermis, relative kill rate rated against the adipocyte kill rate” value (“Dermis, relative kill rate rated” for short) is on record as 28%. In the assay with nerve cells, the “Nerve, averaged ethidium numbers” value was found to be 124 and the “Nerve, relative kill rate rated against the adipocyte kill rate” value (“Nerve, relative kill rate rated” below) turned out to be 39%. For the same compound, in the assay on skeletal muscle cells, the “Muscle, averaged ethidium numbers” value is recorded as 93 and the “Muscle, relative kill rate rated against the adipocyte kill rate” value (from here on “Muscle, relative kill rate rated”) was 26%. Further, the “tissue specificity / tissue preference” value in assay [2] was “most strongly tissue preferential; also recorded: high specificity”. Besides, in the assay with adipocytes [3] (at 1 hour), the “histology finding / mechanism of action” value was “more cytolysis than apoptosis”.

As for `O=C(O)c1cc2ccccc2[nH]1` [Compound 29, 1H-indole-2-carboxylic acid], in the assay on endothelial cells, the “Endothelial, averaged ethidium numbers” value is reported as 8.5 and the “Endothelial, relative kill rate rated” value is 10%. Moreover, in the assay with adipocytes [1], the “adipocyte kill rate / aggressiveness” value is “less aggressive; also recorded: equivalent to that of Compounds D and E”; the “Adipocyte, averaged ethidium numbers” value was 83. In the assay on dermal fibroblasts, the “Dermis, averaged ethidium numbers” value is reported as 9 and the “Dermis, relative kill rate rated” value is listed as 11%. Moreover, in the assay on nerve cells, the “Nerve, averaged ethidium numbers” value is on record as 15 and the “Nerve, relative kill rate rated” value stood at 18%. Moreover, in the assay on skeletal muscle cells, the “Muscle, averaged ethidium numbers” value is reported as 14 and the “Muscle, relative kill rate rated” value is on record as 17%. Also, the “tissue specificity / tissue preference” value in assay [2] was “most strongly tissue preferential; also recorded: strongly adipocyte preferential”. In addition, the “histology finding / mechanism of action” value in the assay with adipocytes [3] (at 12 hours) is listed as “primarily an apoptotic mechanism”.

Regarding `c1ccc2[nH]ccc2c1` [Compound 33, 1H-indole], in the assay on endothelial cells, the “Endothelial, averaged ethidium numbers” value was 18 and the “Endothelial, relative kill rate rated” value is 56%. Moreover, in the assay on adipocytes [1], the “adipocyte kill rate / aggressiveness” value is “fairly low adipocyte kill rate” and the “Adipocyte, averaged ethidium numbers” value is on record as 32. In addition, in the assay on dermal fibroblasts, the “Dermis, averaged ethidium numbers” value was 17 and the “Dermis, relative kill rate rated” value is on record as 53%. For the same compound, in the assay on nerve cells, the “Nerve, averaged ethidium numbers” value is given as 17 and the “Nerve, relative kill rate rated” value is on record as 53%. In the assay on skeletal muscle cells, the “Muscle, averaged ethidium numbers” value is given as 18 and the “Muscle, relative kill rate rated” value was 56%. Also, the “ethidium results for dermis, muscle and endothelial cells compared with adipocytes” value in assay [2] (4 time points over 24 hours) is on record as “less than half toxic”. Besides, the “tissue specificity / tissue preference” value in assay [2] is listed as “moderate tissue specificity”. Further, the tissue preference result in assay [2] (Example 5, FIG. 12, 10 mg/ml, 4 hours incubation) is reported as “about 50%”. In the assay with adipocytes [3] (at 4 hours), the “histology finding / mechanism of action” value is on record as “pyroptotic activity”.

As for `O=Cc1c[nH]c2cc(OCc3ccccc3)ccc12` [Compound 44, 6-(benzyloxy)-1H-indole-3-carbaldehyde], in the assay on endothelial cells, the “Endothelial, averaged ethidium numbers” value is given as 129 and the “Endothelial, relative kill rate rated” value was 59%. Moreover, in the assay with adipocytes [1], the “Adipocyte, averaged ethidium numbers” value is 218. Further, in the assay with dermal fibroblasts, the “Dermis, averaged ethidium numbers” value is 134 and the “Dermis, relative kill rate rated” value is on record as 61%. Moreover, in the assay with nerve cells, the “Nerve, averaged ethidium numbers” value is given as 103 and the “Nerve, relative kill rate rated” value came to 47%. In the assay with skeletal muscle cells, the “Muscle, averaged ethidium numbers” value is 172 and the “Muscle, relative kill rate rated” value was 79%. Further, the “tissue preference for adipocytes” value in assay [2] (Example 2) was “about 50%”. In addition, the “tissue specificity / tissue preference” value in assay [2] is on record as “not as specific as the other compounds tested in this group”.
